In paper PMC3617124 (Nature chemical biology, 2012):
pIC50: −log10 of the molar value.

Key:
Bax^−/− and Bak^−/− MEFs = assay: apoptotic response to standard proapoptotic stimuli; type: cell-based, mouse
Bak^−/− MEFs [1] = assay: mitochondrial cytochrome c release; type: cell-based, mouse; conditions: 15 h, supernatant and pellet western blot
Bak^−/− MEFs [2] = assay: cell viability assay; type: cell-based, mouse; conditions: 24 h, CellTiter-Glo
MCL-1ΔNΔC = MCL-1ΔNΔC (Homo sapiens, UniProt Q07820); assay: competitive FPA, MCL-1ΔNΔC; type: binding; conditions: even at 50-μM dosing
BAKΔC = assay: competitive FPA, BAKΔC; type: binding
Bax^−/− Bak^−/− MEFs = assay: cell viability assay; type: cell-based, mouse; conditions: 24 h, CellTiter-Glo
Bax^−/− MEFs = assay: cell viability assay; type: cell-based, mouse; conditions: 24 h, CellTiter-Glo
BFL-1/A1ΔC = target: T1, BFL-1/A1ΔC (Homo sapiens, UniProt Q16548); assay: competitive FPA, BFL-1/A1ΔC; type: binding; conditions: even at 50-μM dosing
T1 sequence (Q16548 1-153 limits assumed): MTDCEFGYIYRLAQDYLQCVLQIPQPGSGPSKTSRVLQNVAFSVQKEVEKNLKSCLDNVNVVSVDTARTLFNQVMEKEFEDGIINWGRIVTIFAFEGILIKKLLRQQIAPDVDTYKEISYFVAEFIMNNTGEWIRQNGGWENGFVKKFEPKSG

BCL-XLΔC = BCL-XLΔC (Homo sapiens, UniProt Q07817); assay: competitive FPA, BCL-XLΔC; type: binding; conditions: even at 50-μM dosing
BCL-XLΔC, sequence (Q07817 1-212 limits assumed, stated change not applied): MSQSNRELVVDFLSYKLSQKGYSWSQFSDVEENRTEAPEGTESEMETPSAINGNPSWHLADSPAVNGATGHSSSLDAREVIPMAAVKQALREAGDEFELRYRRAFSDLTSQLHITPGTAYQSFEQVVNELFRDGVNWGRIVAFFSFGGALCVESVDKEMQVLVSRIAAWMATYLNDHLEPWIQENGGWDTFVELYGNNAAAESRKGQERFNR

MCL-1ΔNΔC, sequence (Q07820 172-327, stated change not applied): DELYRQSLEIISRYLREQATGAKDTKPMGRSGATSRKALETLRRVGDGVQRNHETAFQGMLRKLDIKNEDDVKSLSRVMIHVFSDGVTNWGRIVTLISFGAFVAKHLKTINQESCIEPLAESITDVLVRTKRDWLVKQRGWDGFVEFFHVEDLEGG

`COc1cc([C@@H]2c3cc4c(cc3[C@@H](O[C@@H]3O[C@@H]5CO[C@@H](C)O[C@H]5[C@H](O)[C@H]3O)[C@H]3COC(=O)[C@H]23)OCO4)cc(OC)c1O` [etoposide] was tested, and the “apoptotic response in Bax−/− versus Bak−/− MEFs” value (Bax^−/− and Bak^−/− MEFs) was “equivalent apoptotic response”.

`CN[C@@H]1C[C@H]2O[C@@](C)([C@@H]1OC)n1c3ccccc3c3c4c(c5c6ccccc6n2c5c31)C(=O)NC4` [staurosporine] was tested, and the “apoptotic response in Bax−/− versus Bak−/− MEFs” value (Bax^−/− and Bak^−/− MEFs) was “equivalent apoptotic response”.

With `CCOc1ccccc1NN=C1C(=O)N(c2nc(-c3ccccc3)cs2)N=C1C` [BAM7, 4-(2-(2-ethoxyphenyl) hydrazono)-3-methyl-1-(4-phenylthiazol-2-yl)-1H-pyrazol-5(4H)-one] the “mitochondrial cytochrome c release” value (Bak^−/− MEFs [1]) was “dose-responsive mitochondrial cytochrome c release”, the “viability of Bak−/− MEFs” value (Bak^−/− MEFs [2]) was “dose- and time-responsively impaired the viability” and the “competitive binding interaction with MCL-1ΔNΔC” value (MCL-1ΔNΔC) was “little to no”. The “competitive binding interaction with BAKΔC” value (BAKΔC; even at 50-μM dosing) was “little to no”, the “viability of Bax−/− Bak−/− MEFs” value (Bax^−/− Bak^−/− MEFs) was “did not affect the viability” and the “viability of Bax−/− MEFs” value (Bax^−/− MEFs) was “no effect”. The “competitive binding interaction with BFL-1/A1ΔC” value (BFL-1/A1ΔC) was “little to no” and the “competitive binding interaction with BCL-XLΔC” value (BCL-XLΔC) was “little to no”.

For `CC[C@H](C)[C@H](NC(C)=O)C(=O)N[C@@H](Cc1c[nH]c2ccccc12)C(=O)N[C@H](C(=O)N[C@@H](C)C(=O)N[C@@H](CCC(N)=O)C(=O)N[C@@H](CCC(=O)O)C(=O)N[C@@H](CC(C)C)C(=O)N[C@@H](CCCNC(=N)N)C(=O)N[C@@]1(C)CCCC=CCCC[C@@](C)(C(=O)N[C@@H](Cc2ccccc2)C(=O)N[C@@H](CC(N)=O)C(=O)N[C@@H](C)C(=O)N[C@@H](Cc2ccc(O)cc2)C(=O)N[C@@H](Cc2ccc(O)cc2)C(=O)N[C@@H](C)C(=O)N[C@@H](CCCNC(=N)N)C(=O)N[C@@H](CCCNC(=N)N)C(N)=O)NC(=O)[C@H](CC(=O)O)NC(=O)CNC(=O)[C@H]([C@@H](C)CC)NC1=O)[C@@H](C)CC` [BIM SAHB, reference compound], the pIC50 (BAKΔC; read-out: IC50, competition with FITC–BIM SAHB for BAKΔC, competitive FPA) was 6.08.
